From patent publication US6706716B2, “Compounds specific for the human α1d adrenergic receptor and uses thereof” (Synaptic Pharmaceutical Corporation, priority 1998, dated 2004)
Entries after “also recorded” stand apart in the source; their conditions may differ.

Tests used:
[1] = target: T1, α1D adrenergic receptor (Rattus norvegicus, UniProt P23944); experiment: Isolated tissue functional assay, thoracic aorta (phenylephrine induced contraction)
T1 construct: from tissue; host or cells: rat thoracic aorta strips
T1 sequence (P23944 1-561): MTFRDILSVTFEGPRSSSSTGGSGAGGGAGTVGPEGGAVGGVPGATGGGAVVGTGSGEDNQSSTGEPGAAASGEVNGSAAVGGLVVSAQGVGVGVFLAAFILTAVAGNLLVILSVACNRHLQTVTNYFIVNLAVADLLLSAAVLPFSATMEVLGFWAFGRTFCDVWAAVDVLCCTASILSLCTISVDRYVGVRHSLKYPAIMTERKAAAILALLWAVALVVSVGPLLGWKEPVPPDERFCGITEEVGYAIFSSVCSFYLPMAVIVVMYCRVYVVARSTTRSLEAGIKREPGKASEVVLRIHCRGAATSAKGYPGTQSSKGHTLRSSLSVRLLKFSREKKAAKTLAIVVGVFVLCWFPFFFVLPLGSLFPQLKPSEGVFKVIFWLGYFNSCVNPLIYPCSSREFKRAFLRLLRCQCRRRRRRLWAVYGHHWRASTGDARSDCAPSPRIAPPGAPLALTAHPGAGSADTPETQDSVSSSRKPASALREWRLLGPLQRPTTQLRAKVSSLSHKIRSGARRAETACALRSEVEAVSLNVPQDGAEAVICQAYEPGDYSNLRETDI
Experimental: (§1) The functional in vitro activity of Compound 7 was characterized in several pharmacologically defined α1 adrenoceptor subtype isolated tissue assays (Aboud et al., 1993). (Rat epididymal vas deferens was used to determine α1A functional responses, spleen was used for α1B responses, and thoracic aorta was used for α1D responses.) Experiments were carried out according to the method of Deng et al., 1996, with minor buffer and tissue setup tension modifications. Krebs additionally contained 0.1 μM desipramine and 10 μM corticosterone to block neuronal and extra neuronal uptake, respectively, and 0.3 μM idazoxan to eliminate α2 mediated responses. Aorta and vas deferens strips were set at 0.5 g resting tension, and the splenic preparations were tensioned to 1 g. All preparations were equilibrated for 1 hr before the addition of drugs.
(§2) Additionally, its antagonist potency was determined by its ability to antagonize phenylephrine (PE) induced contraction in each of these preparations. The degree of shift of the PE agonist dose response-curve in the presence of Compound 7 was measured and pKB values were calculated (mean±s.e.m.).

[2] = tested on: urethane-anesthetized rats; experiment: Blood pressure in urethane-anesthetized, normotensive rats; assay type: in vivo, rat
Experimental: Rats were anesthetized with urethane and PE50 cannulae were placed in the femoral artery and vein for blood pressure monitoring and drug administration, respectively. After stabilization, rats were administered 200 μl saline vehicle or increasing doses of BMY 7378 or Compound 7 at 10 minutes intervals until the reduction in blood pressure reached a plateau. The 5-HT1A-selective antagonist WAY 100635 (1 mg/kg) was then administered and blood pressure monitored for an additional 10 minutes.

[3] = target: T2, α1B adrenoceptor (Rattus norvegicus, UniProt P15823); experiment: Isolated tissue functional assay, spleen (phenylephrine induced contraction)
T2 construct: from tissue; host or cells: rat splenic preparations
T2 sequence (P15823 1-515): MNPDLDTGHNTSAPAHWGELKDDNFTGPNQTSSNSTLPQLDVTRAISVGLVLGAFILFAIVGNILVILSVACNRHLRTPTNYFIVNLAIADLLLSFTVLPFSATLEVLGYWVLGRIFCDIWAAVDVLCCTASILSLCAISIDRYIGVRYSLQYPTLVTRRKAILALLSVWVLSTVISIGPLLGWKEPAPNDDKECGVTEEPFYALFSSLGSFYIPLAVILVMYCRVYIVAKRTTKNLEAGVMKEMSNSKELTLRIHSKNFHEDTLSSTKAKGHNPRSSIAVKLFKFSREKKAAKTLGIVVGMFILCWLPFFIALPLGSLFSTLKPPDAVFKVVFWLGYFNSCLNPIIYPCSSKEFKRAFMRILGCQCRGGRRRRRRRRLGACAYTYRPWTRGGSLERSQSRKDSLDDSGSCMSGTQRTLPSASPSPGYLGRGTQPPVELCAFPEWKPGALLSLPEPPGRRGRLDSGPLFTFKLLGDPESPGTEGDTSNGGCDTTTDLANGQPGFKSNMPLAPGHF
Experimental: as §1, §2

[4] = target: T3, α1A adrenoceptor (Rattus norvegicus, UniProt P43140); experiment: Isolated tissue functional assay, epididymal vas deferens (phenylephrine induced contraction)
T3 construct: from tissue; host or cells: rat epididymal vas deferens
T3 sequence (P43140 1-466): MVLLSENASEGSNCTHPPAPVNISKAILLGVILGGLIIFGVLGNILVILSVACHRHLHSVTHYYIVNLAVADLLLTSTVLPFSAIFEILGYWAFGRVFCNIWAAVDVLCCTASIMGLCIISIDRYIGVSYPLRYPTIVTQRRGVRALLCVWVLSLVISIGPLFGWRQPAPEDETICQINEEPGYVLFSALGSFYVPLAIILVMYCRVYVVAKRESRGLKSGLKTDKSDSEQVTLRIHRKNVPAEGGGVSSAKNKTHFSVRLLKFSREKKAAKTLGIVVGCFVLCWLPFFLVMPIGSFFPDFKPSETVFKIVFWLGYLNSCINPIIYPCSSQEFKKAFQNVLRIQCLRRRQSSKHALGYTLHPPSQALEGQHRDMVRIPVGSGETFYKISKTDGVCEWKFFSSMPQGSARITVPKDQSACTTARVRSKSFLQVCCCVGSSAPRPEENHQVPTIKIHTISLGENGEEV
Experimental: as §1, §2

[5] = target: T4, human 5-HT1Dα (5-HT1D) receptor (Homo sapiens, UniProt P28221); experiment: Competition binding ([3H]serotonin) at cloned human 5-HT1Dα (5-HT1D) receptor; details: read-out: binding affinity (pKi) 5-HT1Dα (5-HT1D) (converted)
T4 construct: expressed in transfected cells; host or cells: LM(tk-) clonal cell line Ltk-8-30-84 (ATCC CRL 10421)
Experimental: 5-HT1Dα (5-HT1D) and 5-HT1Dβ (5-HT1B) receptors: The cell lysates of the LM(tk-) clonal cell line stably transfected with the genes encoding each of these 5-HT receptor subtypes were prepared as described above. The cell line for the 5-HT1Dα (5-HT1D) receptor, designated as Ltk-8-30-84, was deposited on Apr. 17, 1990, and accorded ATCC Accession No. CRL 10421. The cell line for the 5-HT1Dβ (5-HT1B) receptor, designated as Ltk-11, was deposited on Apr. 17, 1990, and accorded ATCC Accession No. CRL 10422. These preparations were suspended in 50 mM Tris-HCl buffer (pH 7.4 at 37° C.) containing 10 mM MgCl2, 0.2 mM EDTA, 10 μM pargyline, and 0.1% ascorbate. […] Nonspecific binding was determined in the presence of 10 μM serotonin. The bound radioligand was separated by filtration through GF/B filters using a cell harvester.

T4 sequence (P28221 whole entry): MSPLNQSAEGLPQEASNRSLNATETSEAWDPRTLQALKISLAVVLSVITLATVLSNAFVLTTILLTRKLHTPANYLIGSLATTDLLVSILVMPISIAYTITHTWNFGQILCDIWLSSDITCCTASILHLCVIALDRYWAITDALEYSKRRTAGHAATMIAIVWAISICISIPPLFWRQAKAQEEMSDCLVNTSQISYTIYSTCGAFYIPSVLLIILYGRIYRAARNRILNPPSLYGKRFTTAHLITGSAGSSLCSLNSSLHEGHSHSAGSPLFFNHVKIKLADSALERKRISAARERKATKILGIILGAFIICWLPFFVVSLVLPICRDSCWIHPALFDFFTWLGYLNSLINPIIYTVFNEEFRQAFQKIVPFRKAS

Which agonist activity ([1]; concentrations up to 10 μM, rat thoracic aorta (α1D model)) does the source give for `O=C1CC2(CCCC2)CC(=O)N1CCN1CCN(c2cc(F)c(F)cc2F)CC1` [Compound 7, 8-{2-[4-(2,4,5-Trifluorophenyl)piperazin-1-yl]ethyl}-8-azaspiro[4.5]decane-7,9-dione] here?
The agonist activity was “failed to produce agonist activity”.

What about the Kb ([1]; rat thoracic aorta (α1D), mean±s.e.m., read-out: pKB (antagonism of phenylephrine induced contraction) (converted)) of the same molecule?
The Kb was 3.16 nM.

And the “reversal of the blood pressure effect by WAY 100635” value ([2]; 5-HT1A-selective antagonist WAY 100635 1 mg/kg given after plateau)?
Its value is “not reversed”.

What about the “effect on systolic, diastolic and mean blood pressure” value ([2]; urethane-anesthetized rats, increasing i.v. doses at 10 min intervals) of the same molecule?
Its value is “reduces blood pressure in anesthetized rat, although to a lesser extent than BMY 7378; also recorded: only a minor reduction in blood pressure”.

What about the agonist activity ([3]; concentrations up to 10 μM, rat spleen (α1B model)) of the same molecule?
The agonist activity was “failed to produce agonist activity”.

And the Kb ([3]; rat spleen (α1B), mean±s.e.m., read-out: pKB (antagonism of phenylephrine induced contraction) (converted))?
The Kb was 200 nM.

What about the “fold less effective than in the aorta” value ([3]; spleen versus aorta) of the same molecule?
Its value is “approximately 60 fold”.

And the agonist activity ([4]; concentrations up to 10 μM, rat vas deferens (α1A model))?
The agonist activity was “failed to produce agonist activity”.

What about the Kb ([4]; rat epididymal vas deferens (α1A), mean±s.e.m., read-out: pKB (antagonism of phenylephrine induced contraction) (converted)) of the same molecule?
The Kb was 6310 nM.

What about the “fold less potent than in the aorta” value ([4]; vas deferens versus aorta) of the same molecule?
Its value is “approximately 2000 fold”.

What about the Ki [5] of the same molecule?
The Ki was 794 nM.
